Among the test systems are 786-0 renal; MDA-MB-435; SK-MEL-5 melanoma; IGROV1 ovarian; K-562 leukemia; HT29 colon; RXF 393 renal; HCC-2998 colon; OVCAR-3 ovarian; SF-295 CNS.
Assay in all cases: inhibition of tumour cell growth, NCI panel, 48 h

The structures appear in SMILES notation.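 Briefly, cells in 96-well plates were exposed to five compound concentrations for 48 h, and endpoints were estimated by linear interpolation. GI50 is the concentration that inhibits growth by half. TGI is the concentration that stops growth completely.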

On to `CCN(CC)c1ccc(/C=C/c2ccc3cc(C)ccc3[n+]2CC)cc1`, for which the GI50 with 786-0 renal was 0.295 µM; in the test on MDA-MB-435 it was 0.113 µM; in the test with SK-MEL-5 melanoma, 0.0493 µM; in the test with IGROV1 ovarian, 0.201 µM; in the test on K-562 leukemia, 0.036 µM; with HT29 colon, 0.0771 µM. For the same molecule, the GI50 with RXF 393 renal was 0.216 µM; in the test with HCC-2998 colon, 0.197 µM; in the test on OVCAR-3 ovarian it was 0.075 µM; in the test on SF-295 CNS it was 0.0658 µM. The TGI with 786-0 renal was 6.46 µM; in the test on MDA-MB-435, 1.28 µM; in the test on SK-MEL-5 melanoma it was 0.261 µM; in the test on IGROV1 ovarian, 18.1 µM; with K-562 leukemia it was 13.5 µM; in the test on HT29 colon it was 2.19 µM. Besides, the TGI was found to be 3.41 µM in the test with RXF 393 renal, 15.3 µM with HCC-2998 colon, 0.995 µM in the test on OVCAR-3 ovarian and 0.864 µM in the test with SF-295 CNS.

In the case of `CN1CCN(C)C12C=c1ccccc1=CC21CC1`, the TGI is more than 100 µM in the test with 786-0 renal; 48.3 µM with MDA-MB-435; 51.1 µM in the test on SK-MEL-5 melanoma; more than 100 µM in the test on IGROV1 ovarian; 46.4 µM in the test with K-562 leukemia; 32.7 µM in the test with HT29 colon. In addition, the TGI with RXF 393 renal was more than 92.6 µM; in the test on HCC-2998 colon, 30.4 µM; in the test with OVCAR-3 ovarian, more than 100 µM; in the test with SF-295 CNS it was more than 100 µM.

With `Cn1c2ccccc2c2c(-c3ccccc3)[n+]3ccncc3nc21`, the GI50 in the test on 786-0 renal is more than 100 µM; in the test on MDA-MB-435, 94.3 µM; in the test on SK-MEL-5 melanoma, 37.2 µM; with IGROV1 ovarian, 70.8 µM; in the test on K-562 leukemia it was more than 100 µM; in the test on HT29 colon, more than 100 µM. Moreover, the GI50 in the test with RXF 393 renal, in the test with HCC-2998 colon, with OVCAR-3 ovarian and in the test with SF-295 CNS was more than 100 µM in each case. In addition, the TGI with 786-0 renal, in the test with MDA-MB-435, in the test with SK-MEL-5 melanoma, with IGROV1 ovarian, in the test on K-562 leukemia and in the test with HT29 colon was more than 100 µM in each case. The TGI in the test with RXF 393 renal, with HCC-2998 colon, in the test on OVCAR-3 ovarian and in the test on SF-295 CNS was more than 100 µM each time.

In the case of `CC[CH2][Sn]([CH2]CC)([O]C(=O)c1cccnc1SC)[O][Sn]([CH2]CC)([CH2]CC)[O]C(=O)c1cccnc1SC`, the GI50 was 0.313 µM in the test on 786-0 renal; 1.54 µM with MDA-MB-435; 0.898 µM with SK-MEL-5 melanoma; 1.26 µM with IGROV1 ovarian; 0.0756 µM in the test with K-562 leukemia; 1.1 µM in the test on HT29 colon. Moreover, the GI50 was 0.0992 µM with RXF 393 renal, 0.642 µM with HCC-2998 colon, 0.583 µM in the test with OVCAR-3 ovarian and 1.04 µM with SF-295 CNS. Moreover, the TGI turned out to be 0.675 µM with 786-0 renal; 2.89 µM in the test with MDA-MB-435; 3.26 µM in the test with SK-MEL-5 melanoma; 3.79 µM in the test with IGROV1 ovarian; 4.32 µM with K-562 leukemia; 3.33 µM with HT29 colon. In addition, the TGI in the test on RXF 393 renal turned out to be 0.342 µM; with HCC-2998 colon, 1.92 µM; in the test on OVCAR-3 ovarian it was 1.85 µM; with SF-295 CNS, 3.04 µM.

With `CC1(C)OC2[C@@H](CNC(=O)NC(=O)NC(=O)CI)O[C@@H](n3cnc4c(NC(=O)Nc5ccccc5)ncnc43)[C@H]2O1` (stereo not given in full), the GI50 was 7.47 µM in the test on 786-0 renal; 7.57 µM in the test with MDA-MB-435; 8.74 µM in the test with SK-MEL-5 melanoma; 2.15 µM with IGROV1 ovarian; 2.3 µM with K-562 leukemia; 3.96 µM in the test with HT29 colon. Moreover, the GI50 in the test with RXF 393 renal is 6.96 µM; in the test on HCC-2998 colon it was 9.29 µM; in the test with OVCAR-3 ovarian it was 5.72 µM; with SF-295 CNS it was 9.18 µM. Moreover, the TGI with 786-0 renal worked out at 14.4 µM; in the test on MDA-MB-435 it was 14.8 µM; in the test on SK-MEL-5 melanoma, 16.2 µM; with IGROV1 ovarian, 8.6 µM; in the test on K-562 leukemia it was 10.5 µM; in the test on HT29 colon, 12.2 µM. Besides, the TGI is 13.6 µM in the test on RXF 393 renal, 19.7 µM in the test on HCC-2998 colon, 12.6 µM with OVCAR-3 ovarian and 19.4 µM in the test on SF-295 CNS.

Consider `C[C@]12CC[C@H]3[C@@H](CC=C4C[C@@H](O)CC[C@@]43C)[C@@H]1CC[C@@H]2N(CCO)CCO`, for which the TGI in the test with 786-0 renal is 42.7 µM; with MDA-MB-435, more than 100 µM; in the test with SK-MEL-5 melanoma, more than 100 µM; in the test on IGROV1 ovarian, more than 100 µM; in the test with K-562 leukemia it was more than 100 µM; with HT29 colon it was more than 100 µM. For the same molecule, the TGI was more than 100 µM with RXF 393 renal, 94.9 µM in the test on HCC-2998 colon, more than 100 µM with OVCAR-3 ovarian and more than 100 µM with SF-295 CNS.

Consider `Oc1c(CN2CCC(N3CCCCC3)CC2)cc(Cc2cc(CN3CCC(N4CCCCC4)CC3)c(O)c3ncccc23)c2cccnc12`, for which the GI50 in the test with 786-0 renal was 1.53 µM; with MDA-MB-435, 1.77 µM; with SK-MEL-5 melanoma, 1.15 µM; with IGROV1 ovarian, 1.16 µM; with K-562 leukemia, 0.617 µM; with HT29 colon, 1.07 µM. The GI50 in the test with RXF 393 renal was 1.94 µM; in the test on HCC-2998 colon, 1.19 µM; with OVCAR-3 ovarian, 0.517 µM; in the test with SF-295 CNS it was 1.64 µM. Also, the TGI in the test with 786-0 renal was found to be 5.96 µM; in the test with MDA-MB-435, 6.41 µM; with SK-MEL-5 melanoma, 2.59 µM; in the test on IGROV1 ovarian, 17.3 µM; with K-562 leukemia it was 8.81 µM; in the test with HT29 colon, 5.39 µM. For the same molecule, the TGI with RXF 393 renal stood at 10.2 µM; in the test on HCC-2998 colon, 6.15 µM; with OVCAR-3 ovarian, 10.1 µM; in the test with SF-295 CNS, 3.58 µM.

In the case of `CC[C@@H]1CN(C)[C@H]2Cc3c([nH]c4ccccc34)C(=O)C[C@H]1C2C(=O)OC` (stereo not given in full), the TGI with 786-0 renal, in the test on MDA-MB-435, in the test on SK-MEL-5 melanoma, in the test with IGROV1 ovarian, with K-562 leukemia and in the test with HT29 colon was more than 100 µM in each case. Further, the TGI with RXF 393 renal, with HCC-2998 colon, in the test on OVCAR-3 ovarian and with SF-295 CNS was more than 100 µM in each case.

The record behind these values is PubChem BioAssay (NCI).
